Results: patent US6481154B1, “Method of large-scale propagation of trees of genus Swietenia” (Sumitomo Forestry Co., Ltd., priority 2000, dated 2002)

Columns and labels:
[1] = tested on: single shoots of Swietenia macrophylla; test: Rooting conditions (2): modified MS medium for 3 months; assay type: cell-based
Method: (§1) A large number of shoots obtained in (4) were cut to single shoots which were cultured in the following procedures:
(2) The single shoots were cultured on a modified MS medium containing 0 to 10.0 mg/l of IBA for 3 months, while transplanting the shoots to a fresh medium of the same composition every month.
(§2) All the above (1)-(4) cultures were conducted under conditions wherein a temperature was 26±2° C., a humidity was 60 to 90% and a light intensity was 3,000 to 9,000 Lux. Further, all the modified media in the above (1)-(4) contained 2.8 g/l of gelright.

[2] = tested on: single shoots of Swietenia macrophylla; test: Rooting conditions (3): modified MS, then modified B5, then modified MS, one month each; assay type: cell-based; conditions: for Rooting rate (%) For first one month / Rooting rate (%) For second one month / Rooting rate (%) For third one month / Withering rate (%) For first one month / Withering rate (%) For second one month / Withering rate (%) For third one month: rooting conditions (3)
Method: as §1
(3) The single shoots were cultured on a modified MS medium containing 0 to 10.0 mg/l of IBA for one month, then on a modified B5 medium containing 0 to 10.0 mg/l of IBA for one month and further on a modified MS medium containing 0 to 10.0 mg/l of IBA for one month.
as §2

How did the “Rooting rate (%) For first one month” value ([1]; IBA 0.1 mg/l) turn out when `O=C(O)CCCc1c[nH]c2ccccc12` [IBA, 3-indole butyric acid] was run?
The value was 0.0%.

What about the “Rooting rate (%) For second one month” value ([1]; IBA 0.1 mg/l) of the same compound?
The value was 0.0%.

And the “Rooting rate (%) For third one month” value ([1]; IBA 0.1 mg/l)?
The value was 0.0%.

And the “Withering rate (%) For first one month” value ([1]; IBA 0.1 mg/l)?
The value was 0.0%.

What about the “Withering rate (%) For second one month” value ([1]; IBA 0.1 mg/l) of the same compound?
The value was 69.2%.

What about the “Withering rate (%) For third one month” value ([1]; IBA 0.1 mg/l) of the same compound?
The value was 84.6%.

And the “Rooting rate (%) For first one month” value ([1]; IBA 1.0 mg/l)?
The value was 0.0%.

What about the “Rooting rate (%) For second one month” value ([1]; IBA 1.0 mg/l) of the same compound?
The value was 3.8%.

What about the “Rooting rate (%) For third one month” value ([1]; IBA 1.0 mg/l) of the same compound?
The value was 3.8%.

And the “Withering rate (%) For first one month” value ([1]; IBA 1.0 mg/l)?
Its value is 0.0%.

And the “Withering rate (%) For second one month” value ([1]; IBA 1.0 mg/l)?
The value was 46.2%.

What about the “Withering rate (%) For third one month” value ([1]; IBA 1.0 mg/l) of the same compound?
Its value is 73.1%.

And the “Rooting rate (%) For first one month” value ([1]; IBA 2.0 mg/l)?
Its value is 0.0%.

And the “Rooting rate (%) For second one month” value ([1]; IBA 2.0 mg/l)?
Its value is 3.8%.

What about the “Rooting rate (%) For third one month” value ([1]; IBA 2.0 mg/l) of the same compound?
Its value is 11.5%.

What about the “Withering rate (%) For first one month” value ([1]; IBA 2.0 mg/l) of the same compound?
Its value is 0.0%.

What about the “Withering rate (%) For second one month” value ([1]; IBA 2.0 mg/l) of the same compound?
The value was 30.8%.

And the “Withering rate (%) For third one month” value ([1]; IBA 2.0 mg/l)?
The value was 76.9%.

And the “Rooting rate (%) For first one month” value ([1]; IBA 2.5 mg/l)?
The value was 0.0%.

And the “Rooting rate (%) For second one month” value ([1]; IBA 2.5 mg/l)?
Its value is 13.3%.

What about the “Rooting rate (%) For third one month” value ([1]; IBA 2.5 mg/l) of the same compound?
The value was 16.7%.

And the “Withering rate (%) For first one month” value ([1]; IBA 2.5 mg/l)?
The value was 0.0%.

What about the “Withering rate (%) For second one month” value ([1]; IBA 2.5 mg/l) of the same compound?
The value was 26.7%.

What about the “Withering rate (%) For third one month” value ([1]; IBA 2.5 mg/l) of the same compound?
Its value is 66.7%.

What about the “Rooting rate (%) For first one month” value ([1]; IBA 3.0 mg/l) of the same compound?
Its value is 0.0%.

And the “Rooting rate (%) For second one month” value ([1]; IBA 3.0 mg/l)?
The value was 3.7%.

What about the “Rooting rate (%) For third one month” value ([1]; IBA 3.0 mg/l) of the same compound?
The value was 11.1%.

What about the “Withering rate (%) For first one month” value ([1]; IBA 3.0 mg/l) of the same compound?
The value was 0.0%.

What about the “Withering rate (%) For second one month” value ([1]; IBA 3.0 mg/l) of the same compound?
Its value is 55.6%.

And the “Withering rate (%) For third one month” value ([1]; IBA 3.0 mg/l)?
The value was 70.4%.

What about the “Rooting rate (%) For first one month” value ([1]; IBA 4.0 mg/l) of the same compound?
The value was 0.0%.

What about the “Rooting rate (%) For second one month” value ([1]; IBA 4.0 mg/l) of the same compound?
The value was 0.0%.

What about the “Rooting rate (%) For third one month” value ([1]; IBA 4.0 mg/l) of the same compound?
Its value is 0.0%.

And the “Withering rate (%) For first one month” value ([1]; IBA 4.0 mg/l)?
The value was 10.3%.

What about the “Withering rate (%) For second one month” value ([1]; IBA 4.0 mg/l) of the same compound?
The value was 58.6%.

And the “Withering rate (%) For third one month” value ([1]; IBA 4.0 mg/l)?
The value was 96.6%.

What about the “Rooting rate (%) For first one month” value ([1]; IBA 5.0 mg/l) of the same compound?
The value was 0.0%.

And the “Rooting rate (%) For second one month” value ([1]; IBA 5.0 mg/l)?
The value was 0.0%.

What about the “Rooting rate (%) For third one month” value ([1]; IBA 5.0 mg/l) of the same compound?
The value was 0.0%.

What about the “Withering rate (%) For first one month” value ([1]; IBA 5.0 mg/l) of the same compound?
Its value is 46.2%.

What about the “Withering rate (%) For second one month” value ([1]; IBA 5.0 mg/l) of the same compound?
The value was 76.9%.

What about the “Withering rate (%) For third one month” value ([1]; IBA 5.0 mg/l) of the same compound?
Its value is 100.0%.

What about the “Rooting rate (%) For first one month” value ([1]; IBA 10.0 mg/l) of the same compound?
Its value is 0.0%.

What about the “Rooting rate (%) For second one month” value ([1]; IBA 10.0 mg/l) of the same compound?
Its value is 0.0%.

And the “Rooting rate (%) For third one month” value ([1]; IBA 10.0 mg/l)?
Its value is 0.0%.

And the “Withering rate (%) For first one month” value ([1]; IBA 10.0 mg/l)?
The value was 65.4%.

What about the “Withering rate (%) For second one month” value ([1]; IBA 10.0 mg/l) of the same compound?
Its value is 80.8%.

What about the “Withering rate (%) For third one month” value ([1]; IBA 10.0 mg/l) of the same compound?
Its value is 100.0%.

What about the “effectiveness versus continuous culture on a single kind of medium” value ([2]; 2.5 mg/l of IBA, modified MS, modified B5, modified MS, one month each) of the same compound?
Its value is “more effective”.

What about the effectiveness for rooting ([2]; 2.5 mg/l of IBA, procedure (3)) of the same compound?
The effectiveness for rooting was “particularly effective”.

What about the “Rooting rate (%) For first one month” value ([2]; IBA 0.1 mg/l) of the same compound?
Its value is 0.0%.

What about the “Rooting rate (%) For second one month” value ([2]; IBA 0.1 mg/l) of the same compound?
The value was 0.0%.

And the “Rooting rate (%) For third one month” value ([2]; IBA 0.1 mg/l)?
The value was 0.0%.

And the “Withering rate (%) For first one month” value ([2]; IBA 0.1 mg/l)?
The value was 7.7%.

And the “Withering rate (%) For second one month” value ([2]; IBA 0.1 mg/l)?
The value was 73.1%.

What about the “Withering rate (%) For third one month” value ([2]; IBA 0.1 mg/l) of the same compound?
Its value is 84.6%.

What about the “Rooting rate (%) For first one month” value ([2]; IBA 1.0 mg/l) of the same compound?
The value was 0.0%.

What about the “Rooting rate (%) For second one month” value ([2]; IBA 1.0 mg/l) of the same compound?
Its value is 10.0%.

And the “Rooting rate (%) For third one month” value ([2]; IBA 1.0 mg/l)?
Its value is 40.0%.

And the “Withering rate (%) For first one month” value ([2]; IBA 1.0 mg/l)?
The value was 0.0%.

And the “Withering rate (%) For second one month” value ([2]; IBA 1.0 mg/l)?
Its value is 30.0%.

And the “Withering rate (%) For third one month” value ([2]; IBA 1.0 mg/l)?
Its value is 50.0%.

And the “Rooting rate (%) For first one month” value ([2]; IBA 2.0 mg/l)?
The value was 0.0%.

What about the “Rooting rate (%) For second one month” value ([2]; IBA 2.0 mg/l) of the same compound?
Its value is 10.0%.

What about the “Rooting rate (%) For third one month” value ([2]; IBA 2.0 mg/l) of the same compound?
The value was 40.0%.

And the “Withering rate (%) For first one month” value ([2]; IBA 2.0 mg/l)?
The value was 0.0%.

And the “Withering rate (%) For second one month” value ([2]; IBA 2.0 mg/l)?
Its value is 30.0%.

What about the “Withering rate (%) For third one month” value ([2]; IBA 2.0 mg/l) of the same compound?
The value was 40.0%.

What about the “Rooting rate (%) For first one month” value ([2]; IBA 2.5 mg/l) of the same compound?
Its value is 0.0%.

What about the “Rooting rate (%) For second one month” value ([2]; IBA 2.5 mg/l) of the same compound?
Its value is 40.0%.

What about the “Rooting rate (%) For third one month” value ([2]; IBA 2.5 mg/l) of the same compound?
The value was 70.0%.

What about the “Withering rate (%) For first one month” value ([2]; IBA 2.5 mg/l) of the same compound?
Its value is 0.0%.

What about the “Withering rate (%) For second one month” value ([2]; IBA 2.5 mg/l) of the same compound?
The value was 0.0%.

And the “Withering rate (%) For third one month” value ([2]; IBA 2.5 mg/l)?
Its value is 20.0%.

And the “Rooting rate (%) For first one month” value ([2]; IBA 3.0 mg/l)?
Its value is 0.0%.

What about the “Rooting rate (%) For second one month” value ([2]; IBA 3.0 mg/l) of the same compound?
The value was 10.0%.

And the “Rooting rate (%) For third one month” value ([2]; IBA 3.0 mg/l)?
The value was 30.0%.

And the “Withering rate (%) For first one month” value ([2]; IBA 3.0 mg/l)?
Its value is 0.0%.

What about the “Withering rate (%) For second one month” value ([2]; IBA 3.0 mg/l) of the same compound?
The value was 50.0%.

And the “Withering rate (%) For third one month” value ([2]; IBA 3.0 mg/l)?
Its value is 50.0%.

What about the “Rooting rate (%) For first one month” value ([2]; IBA 4.0 mg/l) of the same compound?
The value was 0.0%.

What about the “Rooting rate (%) For second one month” value ([2]; IBA 4.0 mg/l) of the same compound?
The value was 0.0%.

And the “Rooting rate (%) For third one month” value ([2]; IBA 4.0 mg/l)?
Its value is 0.0%.

What about the “Withering rate (%) For first one month” value ([2]; IBA 4.0 mg/l) of the same compound?
Its value is 20.0%.

And the “Withering rate (%) For second one month” value ([2]; IBA 4.0 mg/l)?
The value was 60.0%.

And the “Withering rate (%) For third one month” value ([2]; IBA 4.0 mg/l)?
The value was 80.0%.

What about the “Rooting rate (%) For first one month” value ([2]; IBA 5.0 mg/l) of the same compound?
The value was 0.0%.

And the “Rooting rate (%) For second one month” value ([2]; IBA 5.0 mg/l)?
Its value is 0.0%.

What about the “Rooting rate (%) For third one month” value ([2]; IBA 5.0 mg/l) of the same compound?
Its value is 0.0%.

And the “Withering rate (%) For first one month” value ([2]; IBA 5.0 mg/l)?
The value was 40.0%.

And the “Withering rate (%) For second one month” value ([2]; IBA 5.0 mg/l)?
The value was 50.0%.

What about the “Withering rate (%) For third one month” value ([2]; IBA 5.0 mg/l) of the same compound?
Its value is 100.0%.

And the “Rooting rate (%) For first one month” value ([2]; IBA 10.0 mg/l)?
The value was 0.0%.

And the “Rooting rate (%) For second one month” value ([2]; IBA 10.0 mg/l)?
Its value is 0.0%.

What about the “Rooting rate (%) For third one month” value ([2]; IBA 10.0 mg/l) of the same compound?
Its value is 0.0%.

And the “Withering rate (%) For first one month” value ([2]; IBA 10.0 mg/l)?
Its value is 50.0%.

And the “Withering rate (%) For second one month” value ([2]; IBA 10.0 mg/l)?
The value was 100.0%.

What about the “Withering rate (%) For third one month” value ([2]; IBA 10.0 mg/l) of the same compound?
Its value is 100.0%.

What about the single shoots rooted ([2]; procedure (3), 3 months after the start of culturing, 2.5 mg/l of IBA) of the same compound?
The single shoots rooted was 70.0%.
